From patent US20250367283A1, “MEVALONATE PATHWAY INHIBITOR AS HIGHLY-EFFICIENT VACCINE ADJUVANT” (Tsinghua University, priority 2015, published 2025)
Like-named read-outs stand apart in the source and are kept apart here.

What was measured:
anti-OVA IgG = test: Comparison with existing adjuvants: IgG titer after boost; assay type: in vivo, mice; conditions: 100 μg adjuvant, intramuscular, 7th day after third immunization
[1] = tested on: anti-OVA IgM and IgG antibodies; test: Combined adjuvant effect of FPPS inhibitor and TLR agonist, OVA titer; assay type: in vivo, mice
Experimental: Two compounds, TH-Z93 and Imiquimod, were formulated at a concentration of 4 mg/ml, and OVA antigen at a concentration of 10 mg/ml. When used alone, 5 μl of TH-Z93 or imiquimod was added as an adjuvant and mixed with 10 μl of antigen and 5 μl of PBS. When two adjuvants were used in combination, each of the adjuvants were added in an amount of 5 μl and mixed with 10 μl of antigen, and the total volumes were 20 μl. The mice used are of C57B/6 strain. An equal volume of PBS without any adjuvant was used for mice in the control group. The mice was injected at the soles of the right feet. On Day 7 and Day 14 after immunization, blood was taken from the mice's orbits, and 100 μl was taken for each mouse. The obtained blood was left at 4° C. overnight, and then the serum was separated. The titers of anti-OVA IgM and IgG antibodies in the serum were determined.

[2] = target: humanized farnesyl pyrophosphate synthase (HsFPPS) (Homo sapiens (Human), UniProt P14324); test: In vitro HsFPPS enzyme activity assay; assay type: biochemical
Sequence of humanized farnesyl pyrophosphate synthase (HsFPPS) (P14324 whole entry, looked up): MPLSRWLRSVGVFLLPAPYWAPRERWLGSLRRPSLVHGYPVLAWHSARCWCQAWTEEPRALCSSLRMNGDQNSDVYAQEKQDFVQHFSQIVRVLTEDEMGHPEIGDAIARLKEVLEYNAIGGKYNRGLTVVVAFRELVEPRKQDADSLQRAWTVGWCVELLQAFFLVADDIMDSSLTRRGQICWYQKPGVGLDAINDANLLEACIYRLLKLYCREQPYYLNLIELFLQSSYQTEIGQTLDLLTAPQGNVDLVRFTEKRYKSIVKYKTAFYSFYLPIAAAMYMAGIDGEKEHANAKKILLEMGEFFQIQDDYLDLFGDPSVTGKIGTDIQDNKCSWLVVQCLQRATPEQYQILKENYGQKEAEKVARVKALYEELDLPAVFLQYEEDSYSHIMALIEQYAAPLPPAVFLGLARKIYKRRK
Experimental: The measurement method is briefly described as follows: the expression of HsFPPS with 6 consecutive His at the N-terminus was induced in vitro, collected, and purified by Ni column. An in vitro HsFPPS enzyme activity assay was performed in a 96-well plate with 200 μl of solution per well. The buffer of the system was 25 mM HEPES, 2.5 mM MgCl2, pH 7.4. Using DMAPP and IPP as reaction substrates, the change of the UV value at a wavelength of 360 nm was monitored in real time in a phosphate lyase system. The ORIGIN 8.0 software was used to plot and fit. The IC50 values for the inhibition of FPPS by the TH-Z80 series of compounds were shown in the following table, in micromoles per liter (μM).
HsFPPs with 6 consecutive His at the N-terminus was induced to express in vitro, collected, and purified by Ni column. In vitro HsFPPs enzymatic activity assay was performed in a 96-well plate at 200 μl of solution per well. The buffer of the system was 25 mM HEPES, 2.5 mM MgCl2, pH 7.4. Using DMAPP and IPP as reaction substrates, the changes of UV at 360 nm were monitored in real-time in phosphate lyase system. ORIGIN 8.0 software was used to plot and fit.

PR8 influenza virus = PR8 influenza virus challenge after HA1 immunization; assay type: in vivo, mice; conditions: 20 micrograms adjuvant with 5 micrograms HA1, intramuscular
Experimental: Method: 5 micrograms of hemagglutinin protein (HA1) in the PR8 influenza virus was added to phosphate buffer, 20 micrograms of simvastatin, 20 micrograms of TH-Z80, 20 micrograms of TH-Z93 and 20 micrograms of TH-Z145, respectively. And mice were injected intramuscularly for immunization on day 0, day 14 and day 21. Nasal mucosa of mice was inoculated with PR8 virus on day 28. And then the weight of the mice was weighed daily and the death of the mice was observed.

Vγ9Vδ2 T cells = test: Expansion of Vγ9Vδ2 T cells from PBMCs; assay type: cell-based, human; conditions: 4 μM bisphosphonate, 200 U/mL rIL-2, day 12
Experimental: Human peripheral blood mononuclear cells (PBMCs) were prepared from healthy volunteers by Ficoll-Hypaque density gradient centrifugation. […] Cells were harvested on day 12 and stained with FITC-anti-CD3 (Miltenyi Biotec) and PE-anti-[…] (Miltenyi Biotec) monoclonal antibodies. Flow cytometry was used for detection. Prism 5.0 was used to analyze the data.

anti-OVA serum antibody = test: OVA immunization with bisphosphonates (Example 15), serum antibody titer; assay type: in vivo, mice; conditions: 100 μg, intramuscular, 14 days
Experimental: During the immunization, the antigen we used was ovalbumin (OVA). Mice were c57bl/6 female mice at the age of 8 weeks. OVA was formulated at a concentration of 1 mg/ml and bisphosphonate concentration was 1 mg/ml. OVA and bisphosphonates were mixed at a ratio of 1:1 at the time of immunization. Mice were injected intramuscularly with […]. 100 μg of OVA and 100 μg of bisphosphonate per mouse. 14 days after immunization, 100 μl of orbital blood was taken from each mouse.
The whole blood which had been obtained was placed in a 4° C. freezer overnight. The next day, the whole blood at 4° C. was centrifuged at a speed of 6000 rpm at a temperature of 4° C. for 5 minutes. After the centrifugation, the upper serum was carefully taken out and centrifuged again at a speed of 6000 rpm at a temperature of 4° C. for 5 minutes. The upper serum was taken again. Serum was frozen and stored at-20° C. and thawed when tested.
1. Coating: antigen OVA was diluted to a protein content of 2 μg/ml with 0.05M pH 9.6 carbonate coating buffer. Each reaction well of a polystyrene plate was coated with 50 μl of the solution overnight at 4° C. or 2 h at 37° C. […]
7. On an ELISA detector, the OD value was read at 490 nm. Titers of serum antibody were calculated. Serum dilutions were calculated as titers of serum antibody based on an OD value greater than or equal to 1.5 times of the reading of the negative control well.

[3] = Example 15 table, read-out: HsFPPS (IC50/μM)
[4] = TH-Z80 series, DMAPP and IPP substrates, pH 7.4, read-out: IC50 for inhibition of FPPS

| Compound | IgG antibody titer after boost vs PBS control (anti-OVA IgG) | body weight and death after PR8 virus inoculation (PR8 influenza virus) | IC50 [2, 3] | IC50 [2, 4] | also measured |
| --- | --- | --- | --- | --- | --- |
| CCCCCCOc1ccnc(NC(P(=O)(O)O)P(=O)(O)O)c1 [TH-Z93, (((4-(hexyloxy)pyridin-2-yl)amino)methylene)bisphosphonic acid] | significantly high titers | did not lose weight nor died | – | – | antibody titers vs PBS control, adjuvant used alone ([1]; soles of right feet): significant high titers; antibody titers vs imiquimod alone ([1]; used alone): significantly superior to those of mice treated with imiquimod alone; IC50 ([2]; o-aminopyridine bisphosphonic acid compounds, read-out: IC50 (inhibition of FPPS)): 0.1 µM |
| CCCCCCOc1ccc2c(c1)ncn2CC(O)(P(=O)(O)O)P(=O)(O)O [TH-Z80] | significantly high titers | did not lose weight nor died | 0.11 µM | 0.11 µM | amplification effect on Vγ9Vδ2 T cells (Vγ9Vδ2 T cells): best amplification effect on Vγ9Vδ2 T cells; antibody titers vs conventional bisphosphonates (anti-OVA serum antibody): higher titers of antibodies than conventional bisphosphonates |
| CCCCCCCOc1ccc2c(c1)ncn2CC(O)(P(=O)(O)O)P(=O)(O)O [TH-Z152] | – | – | 0.14 µM | 0.14 µM | – |
| CCCCCCCCOc1ccc2c(c1)ncn2CC(O)(P(=O)(O)O)P(=O)(O)O [TH-Z81] | – | – | 0.48 µM | 0.48 µM | adjuvant effect by carbon chain length of the side chain (anti-OVA serum antibody): strongest effect as an adjuvant |
| CCCCCCCCCOc1ccc2c(c1)ncn2CC(O)(P(=O)(O)O)P(=O)(O)O [TH-Z153] | – | – | 4.9 µM | 4.9 µM | – |
| CCC(C)(C)C(=O)O[C@H]1C[C@@H](C)C=C2C=C[C@H](C)[C@H](CC[C@@H]3C[C@@H](O)CC(=O)O3)[C@H]21 [simvastatin, reference compound] | significantly high titers | did not lose weight nor died | – | – | – |
| (2-(3-(octyloxy)phenyl)ethane-1,1-diyl)bisphosphonic acid [TH-Z145] | significantly high titers | did not lose weight nor died | – | – | – |
